Assay results taken from ChEMBL document CHEMBL5230176, “X-ray structure of human aldo-keto reductase 1C3 in complex with a bile acid fused tetrazole inhibitor: experimental validation, molecular docking and structural analysis” (RSC Med Chem, 2023).
The source made the active and inactive calls. The rule behind the calls is not given here.

What follows are compounds tested against T1, Aldo-keto reductase family 1 member C3 (Homo sapiens) (UniProt P42330) (assay: Inhibition of 6 His-tagged human AKR1C3 expressed in Escherichia coli BL21 (DE3) cells using 9,10-phenanthrenequinone as substrate assessed as substrate reduction by measuring change in NADPH fluorescence at 33.3 uM incubated for 30 mins by fluorescence spectroscopic analysis relative to control).
T1 sequence (whole entry): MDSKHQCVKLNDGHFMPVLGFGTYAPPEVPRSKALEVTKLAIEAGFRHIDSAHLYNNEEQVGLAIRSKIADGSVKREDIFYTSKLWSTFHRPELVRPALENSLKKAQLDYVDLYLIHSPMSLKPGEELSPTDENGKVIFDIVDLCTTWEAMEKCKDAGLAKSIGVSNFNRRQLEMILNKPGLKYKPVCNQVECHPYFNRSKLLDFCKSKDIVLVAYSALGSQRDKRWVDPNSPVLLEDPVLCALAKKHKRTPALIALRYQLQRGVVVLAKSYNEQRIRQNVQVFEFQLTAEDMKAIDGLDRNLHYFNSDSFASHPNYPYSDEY
With C[C@H](CCC(=O)O)[C@H]1CC[C@H]2[C@H]3[C@H](CC[C@]12C)[C@@]1(C)CC[C@@H](O)C[C@H]1Cc1nnnn13 the inhibition was 14.2%.
C[C@H](CCC(=O)O)[C@H]1CC[C@H]2[C@@H]3CC[C@@H]4C[C@H](O)CC[C@]4(C)[C@H]3Cc3nnnn3[C@]12C showed an inhibition of 77.9%.
For CCOC(=O)CC[C@@H](C)[C@H]1CC[C@H]2[C@H]3[C@H](CC[C@]12C)[C@@]1(C)CC[C@@H](OC(C)=O)C[C@H]1Cc1nnnn13, the inhibition was “inactive”.
With C[C@H](CCC(=O)O)[C@H]1CC[C@H]2[C@H]3[C@H](C[C@H](O)[C@]12C)[C@@]1(C)CC[C@@H](O)C[C@H]1Cc1nnnn13 the inhibition was “inactive”.
COC(=O)CC[C@@H](C)[C@H]1CC[C@H]2[C@H]3[C@H](C[C@H](OC(C)=O)[C@]12C)[C@@]1(C)CC[C@@H](OC(C)=O)C[C@H]1Cc1nnnn13 was tested, and the inhibition was “inactive”.

What follows are compounds tested against T2, Aldo-keto reductase family 1 member C2 (Homo sapiens) (UniProt P52895) (assay: Inhibition of 6 His-tagged human AKR1C2 expressed in Escherichia coli BL21 (DE3) cells using 9,10-phenanthrenequinone as substrate assessed as substrate reduction by measuring change in NADPH consumption at 40 uM incubated for 15 mins by absorbance based spectroscopic analysis relative to control).
T2 sequence (whole entry): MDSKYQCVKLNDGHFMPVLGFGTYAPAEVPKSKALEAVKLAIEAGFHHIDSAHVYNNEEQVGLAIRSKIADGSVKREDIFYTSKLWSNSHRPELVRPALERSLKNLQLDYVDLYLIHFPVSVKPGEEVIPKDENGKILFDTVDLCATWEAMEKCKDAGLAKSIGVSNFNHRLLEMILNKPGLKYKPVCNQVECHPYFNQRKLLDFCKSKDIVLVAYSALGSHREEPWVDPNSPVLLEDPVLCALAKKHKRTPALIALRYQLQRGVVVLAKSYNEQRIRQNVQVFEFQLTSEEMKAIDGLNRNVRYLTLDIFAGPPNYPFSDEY
C[C@H](CCC(=O)O)[C@H]1CC[C@H]2[C@@H]3CC[C@@H]4C[C@H](O)CC[C@]4(C)[C@H]3Cc3nnnn3[C@]12C gave an inhibition of 13%.
